Reference: patent US9717241B2, “Increased tolerance of DHT-enabled plants to auxinic herbicides resulting from moiety differences in auxinic herbicide molecular structures” (priority 2011, dated 2017)

How the values were obtained:
[1] = test system: AAD-1 cotton; experiment: Crop injury over time on AAD-1 cotton, field experiment near Tifton, Ga.; assay type: in vivo, Cotton (Gossypium spp.); settings: n = 3 plots
Procedure: (§1) By “injury” it is meant the percentage of foliage that is epinastic (has leaf droop, leaf rolling, petiole curvature) as visually assessed by one skilled in the art. The reduced injury from 2,4-DB relative to 2,4-D is observable within minutes after application of these herbicides and continues to be observable for an extended time period thereafter, such as from 2 hrs after application to 30 days after application, including 3 hours after application to 19 days after application and further including 6 hours after application to 24 hours after application.
(§2) To evaluate the tolerance of AAD-1-cotton plants to the effects of 2,4-DB and 2,4-D herbicide compounds, the herbicides Butyrac 200 (2,4-DB) and Weedar 64 (2,4-D) were applied individually by broadcast spraying over AAD-1-cotton plants in two field experiments.
Another experiment was conducted at one field location at the University of Georgia Ponder Farm, near Tifton, Ga. The experimental design was three replications with plots in randomized complete blocks. Each plot had AAD-1-cotton plants in one row that was 25 feet in length. Cotton plants were targeted at […] in height (6-leaf stage) for single-application treatment. Treatments consisted of Butyrac 200 (2,4-DB) applied at 280, 560, 1120, and 2240 g ae ha; and Weedar 64 (2,4-D) applied at 560 and 1120 g ae/ha. AAD-1-cotton plants were visually assessed for the percentage of foliage showing herbicide-related injury on days—0, 1, 2, 19, and 45 after application.

[2] = test system: AAD-1 cotton; experiment: Crop injury on AAD-1 cotton, field experiment at four locations; assay type: in vivo, Cotton (Gossypium spp.); settings: epinastic foliage per plot, n = 16 plots
Procedure: as §1, §2
One experiment was conducted at four field locations near Greenville, Miss.; Brinson, Ga.; Memphis, Tenn.; and Fresno, Calif. The experimental design was four replications per site with treatment plots in randomized complete blocks. Each plot had AAD-1-cotton plants in two rows that were 20 feet in length. Cotton plants were targeted at two to four inches in height for single-application treatment. Treatments consisted of Butyrac 200 (2,4-DB) applied at 560, 840, 1120, 1680, and 2240 g ae/ha; and Weedar 64 (2,4-D) applied at 840 and 1120 g ae/ha. AAD-1-cotton plants were visually assessed for the percentage of foliage showing herbicide-related injury one day after application.

[3] = test system: AAD-12 cotton; experiment: Crop injury over time on AAD-12 cotton, greenhouse experiment; assay type: in vivo, Cotton (Gossypium spp.); settings: n = 4 plants
Procedure: as §1
To evaluate the tolerance of AAD-12-cotton plants to the effects of 2,4-DB and 2,4-D herbicide compounds, the herbicides DB Straight (2,4-DB) and Weedar 64 (2,4-D) were applied individually by spraying over AAD-12-cotton plants in one greenhouse experiment. The four treatments consisted of two application rates, 1120 and 2240 g ae/ha, for each of the two herbicides. The experimental design was four replications of single AAD-12-cotton plants per treatment. The plants were grown in pots. Treatments were not randomized. Plants were at the 3- to 4-leaf stage when sprayed. The sprayed AAD-12-cotton plants were visually assessed for the percentage of foliage showing herbicide-related injury on days-0, 1, 2, 4, and 12 after application.

[4] = test system: AMAPA; experiment: Weed control in AAD-1 cotton field plots; assay type: in vivo, Amaranthus palmeri; settings: 1120 g ae/ha, 3 WAA (maximum control), n = 36 plots
Procedure: (§3) An experiment to compare the efficacies of 2,4-DB and 2,4-D to control weeds in AAD-1 cotton was conducted at nine field sites located near Greenville, Miss. (3 locations); Chula, Ga.; Macon County, Ga.; Attapulgus, Ga.; Memphis, Tenn.; Newport, Ark.; and Fresno, Calif. The experimental design was four replications per site with treatment plots in randomized complete blocks. Each plot had AAD-1-cotton plants in two rows that were 20 feet in length. Weed and cotton plants were targeted at two to six inches in height for a single-application treatment. Treatments consisted of Butyrac 200 (2,4-DB) and Weedar 64 (2,4-D) applied to plots at 560, 840, and 1120 g ae/ha. Weed species were visually assessed once per week for three weeks after herbicide application for the percentage plants (0-100%, where 0 represents no activity or a control and 100% represents death of the target plant) killed or showing severe herbicide-related injury.
(§4) For nearly all targeted species and for each week of measurement, greater levels of control were obtained with increasing application rates of 2,4-DB or 2,4-D, with the greatest control from 1120 g ae/ha. Therefore, based on efficacy, 1120 g ae/ha is the preferred application rate of the three rates tested to control weeds in AAD-1 cotton. At 1120 g ae/ha, control was classified as either ≦80%, >80%, or >90% of weed plants killed or seriously injured.

[5] = test system: SOLNI; experiment: Weed control in AAD-1 cotton field plots; assay type: in vivo; settings: 1120 g ae/ha, 3 WAA (maximum control), n = 36 plots
Procedure: as §3, §4

[6] = test system: IPOHG; experiment: Weed control in AAD-1 cotton field plots; assay type: in vivo; settings: 1120 g ae/ha, 2 WAA (maximum control), n = 36 plots
Procedure: as §3, §4

[7] = test system: IAQTA; experiment: Weed control in AAD-1 cotton field plots; assay type: in vivo; settings: 1120 g ae/ha, 2 WAA (maximum control), n = 36 plots
Procedure: as §3, §4

[8] = test system: CASOB; experiment: Weed control in AAD-1 cotton field plots; assay type: in vivo; settings: 1120 g ae/ha, 3 WAA (maximum control), n = 36 plots
Procedure: as §3, §4

[9] = test system: SIDSP; experiment: Weed control in AAD-1 cotton field plots; assay type: in vivo; settings: 1120 g ae/ha, 3 WAA (maximum control), n = 36 plots
Procedure: as §3, §4

[10] = test system: RCHSC; experiment: Weed control in AAD-1 cotton field plots; assay type: in vivo; settings: 1120 g ae/ha, 3 WAA (maximum control), n = 36 plots
Procedure: as §3, §4

[11] = test system: ACNHI; experiment: Weed control in AAD-1 cotton field plots; assay type: in vivo; settings: 1120 g ae/ha, 2 WAA (maximum control), n = 36 plots
Procedure: as §3, §4

[12] = test system: IPOSS; experiment: Weed control in AAD-1 cotton field plots; assay type: in vivo; settings: 1120 g ae/ha, 3 WAA (maximum control), n = 36 plots
Procedure: as §3, §4

[13] = test system: AMARE; experiment: Weed control in AAD-1 cotton field plots; assay type: in vivo; settings: 1120 g ae/ha, 3 WAA (maximum control), n = 36 plots
Procedure: as §3, §4

[14] = test system: SEBEX; experiment: Weed control in AAD-1 cotton field plots; assay type: in vivo; settings: 1120 g ae/ha, 3 WAA (maximum control), n = 36 plots
Procedure: as §3, §4

[15] = test system: ACCOS; experiment: Weed control in AAD-1 cotton field plots; assay type: in vivo; settings: 1120 g ae/ha, 3 WAA (maximum control), n = 36 plots
Procedure: as §3, §4

[16] = test system: AMASS; experiment: Weed control in AAD-1 cotton field plots; assay type: in vivo, All Amaranthus species excluding AMAPA; settings: 1120 g ae/ha, 3 WAA (maximum control), n = 36 plots
Procedure: as §3, §4

Compound: O=C(O)CCCOc1ccc(Cl)cc1Cl [2,4-DB, 4-(2,4-dichlorophenoxy) butyric acid]
- Mean Injury (%) ([1]; 280 g ae/ha, 0 DAA): 1.7 a %
- Mean Injury (%) ([1]; 280 g ae/ha, 1 DAA): 0.7 a %
- Mean Injury (%) ([1]; 280 g ae/ha, 2 DAA): 1.3 ab %
- Mean Injury (%) ([1]; 280 g ae/ha, 19 DAA): 0.0 a %
- Mean Injury (%) ([1]; 280 g ae/ha, 45 DAA): 0.0 a %
- Mean Injury (%) ([1]; 560 g ae/ha, 0 DAA): 2.7 a %
- Mean Injury (%) ([1]; 560 g ae/ha, 1 DAA): 0.0 a %
- Mean Injury (%) ([1]; 560 g ae/ha, 2 DAA): 0.7 a %
- Mean Injury (%) ([1]; 560 g ae/ha, 19 DAA): 0.7 a %
- Mean Injury (%) ([1]; 560 g ae/ha, 45 DAA): 0.0 a %
- Mean Injury (%) ([1]; 1120 g ae/ha, 0 DAA): 5.0 ab %
- Mean Injury (%) ([1]; 1120 g ae/ha, 1 DAA): 0.7 a %
- Mean Injury (%) ([1]; 1120 g ae/ha, 2 DAA): 1.3 ab %
- Mean Injury (%) ([1]; 1120 g ae/ha, 19 DAA): 0.0 a %
- Mean Injury (%) ([1]; 1120 g ae/ha, 45 DAA): 1.7 a %
- Mean Injury (%) ([1]; 2240 g ae/ha, 0 DAA): 9.3 b %
- Mean Injury (%) ([1]; 2240 g ae/ha, 1 DAA): 2.0 a %
- Mean Injury (%) ([1]; 2240 g ae/ha, 2 DAA): 3.3 abc %
- Mean Injury (%) ([1]; 2240 g ae/ha, 19 DAA): 0.7 a %
- Mean Injury (%) ([1]; 2240 g ae/ha, 45 DAA): 0.0 a %
- Mean Injury 1 DAA, Injury (%) ([2]; 560 g ae/ha post-emergence): 2.3%
- Mean Injury 1 DAA, Injury (%) ([2]; 840 g ae/ha post-emergence): 4.1%
- Mean Injury 1 DAA, Injury (%) ([2]; 1120 g ae/ha post-emergence): 2.8%
- Mean Injury 1 DAA, Injury (%) ([2]; 1680 g ae/ha post-emergence): 4.5%
- Mean Injury 1 DAA, Injury (%) ([2]; 2240 g ae/ha post-emergence): 6.3%
- Mean Injury (%) ([3]; 1120 g ae/ha, 0 DAA): 0.0 a %
- Mean Injury (%) ([3]; 1120 g ae/ha, 1 DAA): 1.8 ab %
- Mean Injury (%) ([3]; 1120 g ae/ha, 2 DAA): 0.0 a %
- Mean Injury (%) ([3]; 1120 g ae/ha, 4 DAA): 1.0 b %
- Mean Injury (%) ([3]; 1120 g ae/ha, 12 DAA): 1.0 a %
- Mean Injury (%) ([3]; 2240 g ae/ha, 0 DAA): 0.0 a %
- Mean Injury (%) ([3]; 2240 g ae/ha, 1 DAA): 0.0 b %
- Mean Injury (%) ([3]; 2240 g ae/ha, 2 DAA): 0.0 a %
- Mean Injury (%) ([3]; 2240 g ae/ha, 4 DAA): 0.5 b %
- Mean Injury (%) ([3]; 2240 g ae/ha, 12 DAA): 3.3 a %
- Percentage Control of Target Weeds [4]: 81%
- Percentage Control of Target Weeds [5]: 89%
- Percentage Control of Target Weeds [6]: 100%
- Percentage Control of Target Weeds [7]: 99%
- Percentage Control of Target Weeds [8]: 100%
- Percentage Control of Target Weeds [9]: 84%
- Percentage Control of Target Weeds [10]: 99%
- Percentage Control of Target Weeds [11]: 99%
- Percentage Control of Target Weeds [12]: 99%
- Percentage Control of Target Weeds [13]: 89%
- Percentage Control of Target Weeds [14]: 89%
- Percentage Control of Target Weeds [15]: 88%
- Percentage Control of Target Weeds [16]: 77%

Compound: O=C(O)COc1ccc(Cl)cc1Cl [2,4-D]
- Mean Injury (%) ([1]; 560 g ae/ha, 0 DAA): 6.7 ab %
- Mean Injury (%) ([1]; 560 g ae/ha, 1 DAA): 6.7 b %
- Mean Injury (%) ([1]; 560 g ae/ha, 2 DAA): 4.0 bc %
- Mean Injury (%) ([1]; 560 g ae/ha, 19 DAA): 1.7 a %
- Mean Injury (%) ([1]; 560 g ae/ha, 45 DAA): 3.3 a %
- Mean Injury (%) ([1]; 1120 g ae/ha, 0 DAA): 23.3 c %
- Mean Injury (%) ([1]; 1120 g ae/ha, 1 DAA): 14.0 c %
- Mean Injury (%) ([1]; 1120 g ae/ha, 2 DAA): 4.7 c %
- Mean Injury (%) ([1]; 1120 g ae/ha, 19 DAA): 5.0 b %
- Mean Injury (%) ([1]; 1120 g ae/ha, 45 DAA): 2.3 a %
- Mean Injury 1 DAA, Injury (%) ([2]; 840 g ae/ha post-emergence): 7.4%
- Mean Injury 1 DAA, Injury (%) ([2]; 1120 g ae/ha post-emergence): 13.0%
- Mean Injury (%) ([3]; 1120 g ae/ha, 0 DAA): 0.5 a %
- Mean Injury (%) ([3]; 1120 g ae/ha, 1 DAA): 2.3 ab %
- Mean Injury (%) ([3]; 1120 g ae/ha, 2 DAA): 3.0 a %
- Mean Injury (%) ([3]; 1120 g ae/ha, 4 DAA): 3.0 b %
- Mean Injury (%) ([3]; 1120 g ae/ha, 12 DAA): 3.0 a %
- Mean Injury (%) ([3]; 2240 g ae/ha, 0 DAA): 1.3 a %
- Mean Injury (%) ([3]; 2240 g ae/ha, 1 DAA): 4.3 a %
- Mean Injury (%) ([3]; 2240 g ae/ha, 2 DAA): 3.8 a %
- Mean Injury (%) ([3]; 2240 g ae/ha, 4 DAA): 6.8 a %
- Mean Injury (%) ([3]; 2240 g ae/ha, 12 DAA): 3.0 a %
- Percentage Control of Target Weeds [4]: 89%
- Percentage Control of Target Weeds [5]: 93%
- Percentage Control of Target Weeds [6]: 100%
- Percentage Control of Target Weeds [7]: 99%
- Percentage Control of Target Weeds [8]: 98%
- Percentage Control of Target Weeds [9]: 89%
- Percentage Control of Target Weeds [10]: 97%
- Percentage Control of Target Weeds [11]: 99%
- Percentage Control of Target Weeds [12]: 99%
- Percentage Control of Target Weeds [13]: 93%
- Percentage Control of Target Weeds [14]: 88%
- Percentage Control of Target Weeds [15]: 90%
- Percentage Control of Target Weeds [16]: 92%
